# Test results published in article PMC4018390, “Important Role of CYP2J2 in Protein Kinase Inhibitor Degradation: A Possible Role in Intratumor Drug Disposition and Resistance” (PLoS ONE, 2014).
# Where two headings read alike, the source gives them in different places.
# Legend:
# [1] = target: T1, CYP2J2 (Homo sapiens, UniProt P51589); test: TKI disappearance in culture media of HepG2 cells infected with adenovirus expressing CYP2J2; conditions: up to 72 hours, result in words
# T1 sequence (P51589 1-502): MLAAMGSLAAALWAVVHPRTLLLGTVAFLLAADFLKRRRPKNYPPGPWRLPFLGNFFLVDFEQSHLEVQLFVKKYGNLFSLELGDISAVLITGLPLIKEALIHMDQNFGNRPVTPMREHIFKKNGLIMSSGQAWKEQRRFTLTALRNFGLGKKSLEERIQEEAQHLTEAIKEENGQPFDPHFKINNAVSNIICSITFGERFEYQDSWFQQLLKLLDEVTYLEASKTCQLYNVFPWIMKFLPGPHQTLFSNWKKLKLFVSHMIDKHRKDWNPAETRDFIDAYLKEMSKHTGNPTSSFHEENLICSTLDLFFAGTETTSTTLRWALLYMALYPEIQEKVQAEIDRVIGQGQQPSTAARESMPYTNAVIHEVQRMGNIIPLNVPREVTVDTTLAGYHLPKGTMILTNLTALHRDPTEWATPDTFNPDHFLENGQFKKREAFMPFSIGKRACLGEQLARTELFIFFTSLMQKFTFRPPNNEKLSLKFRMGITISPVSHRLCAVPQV
# Excerpt: (§1) Protein pellets were discarded.
# [2] = target: T2, CYP3A4 (Homo sapiens, UniProt P08684); design: purchased BD Bioscience (Belgium), BD Gentest; host or cells: insect cells; method as in earlier work; conditions: compared with CYP1A1 and 1B1, ref 22 (Kamath et al.); cited from earlier work
# T2 sequence (P08684 whole entry): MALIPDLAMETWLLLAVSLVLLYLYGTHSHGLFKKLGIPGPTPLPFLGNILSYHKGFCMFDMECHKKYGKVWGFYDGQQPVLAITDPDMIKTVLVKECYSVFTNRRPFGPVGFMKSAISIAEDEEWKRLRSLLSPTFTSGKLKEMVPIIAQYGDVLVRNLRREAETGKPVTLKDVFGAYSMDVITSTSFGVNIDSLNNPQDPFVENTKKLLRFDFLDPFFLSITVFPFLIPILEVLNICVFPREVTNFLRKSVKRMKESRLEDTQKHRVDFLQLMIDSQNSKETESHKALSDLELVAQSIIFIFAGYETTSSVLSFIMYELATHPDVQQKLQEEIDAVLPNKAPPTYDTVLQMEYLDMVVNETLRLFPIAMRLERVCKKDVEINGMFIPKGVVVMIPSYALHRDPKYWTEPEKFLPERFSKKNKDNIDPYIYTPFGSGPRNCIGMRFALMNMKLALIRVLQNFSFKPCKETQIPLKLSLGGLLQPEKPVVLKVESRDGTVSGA
# [3] = target: T3, CYP1B1 (Homo sapiens, UniProt Q16678); test: TKI disappearance in culture media of HepG2 cells infected with adenovirus expressing CYP1B1; conditions: up to 72 hours, result in words
# T3 sequence (Q16678 1-543): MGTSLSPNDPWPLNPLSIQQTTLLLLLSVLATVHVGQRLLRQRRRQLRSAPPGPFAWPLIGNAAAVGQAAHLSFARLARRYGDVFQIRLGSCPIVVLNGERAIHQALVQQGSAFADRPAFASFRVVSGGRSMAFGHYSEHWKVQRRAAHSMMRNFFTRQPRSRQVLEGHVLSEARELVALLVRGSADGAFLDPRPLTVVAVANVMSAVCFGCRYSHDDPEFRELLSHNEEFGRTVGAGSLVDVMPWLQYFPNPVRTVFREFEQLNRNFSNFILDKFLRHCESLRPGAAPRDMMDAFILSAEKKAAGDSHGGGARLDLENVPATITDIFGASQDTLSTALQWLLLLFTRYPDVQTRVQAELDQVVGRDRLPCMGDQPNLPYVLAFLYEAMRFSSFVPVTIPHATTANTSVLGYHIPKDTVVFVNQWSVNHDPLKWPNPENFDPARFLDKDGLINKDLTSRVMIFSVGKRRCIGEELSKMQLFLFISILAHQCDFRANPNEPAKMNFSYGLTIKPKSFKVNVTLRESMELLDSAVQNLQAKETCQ
# [4] = target: T3, CYP1B1; design: purchased BD Bioscience (Belgium), BD Gentest; host or cells: insect cells; method as in earlier work; conditions: compared with CYP1A1 and 3A4, ref 22 (Kamath et al.); cited from earlier work
# [5] = target: T2, CYP3A4; conditions: 2.5 µM, pH 7.4; for Disappearance rate in microsomal incubations: 10 min; for TKI levels removed from incubations: 30 min
# Protocol: (§2) The disappearance rate was calculated after 10 min (see Table 1 ) taking into account the percent of TKI removed from the incubation (0.25 nmole of TKI and 20 pmoles of CYP in 100 µL) and are expressed in (nmole of degraded TKI/(nanomole of CYP×min)).
# as §1
# [6] = target: T1, CYP2J2; conditions: 2.5 µM, pH 7.4; for Disappearance rate in microsomal incubations: 10 min; for TKI levels removed from incubations: 30 min
# Protocol: as §2, §1
# [7] = target: T4, CYP1A1 (Homo sapiens, UniProt P04798); conditions: HepG2 cells infected with CYP1A1 adenovirus; up to 72 hours; result in words
# T4 sequence (P04798 1-512): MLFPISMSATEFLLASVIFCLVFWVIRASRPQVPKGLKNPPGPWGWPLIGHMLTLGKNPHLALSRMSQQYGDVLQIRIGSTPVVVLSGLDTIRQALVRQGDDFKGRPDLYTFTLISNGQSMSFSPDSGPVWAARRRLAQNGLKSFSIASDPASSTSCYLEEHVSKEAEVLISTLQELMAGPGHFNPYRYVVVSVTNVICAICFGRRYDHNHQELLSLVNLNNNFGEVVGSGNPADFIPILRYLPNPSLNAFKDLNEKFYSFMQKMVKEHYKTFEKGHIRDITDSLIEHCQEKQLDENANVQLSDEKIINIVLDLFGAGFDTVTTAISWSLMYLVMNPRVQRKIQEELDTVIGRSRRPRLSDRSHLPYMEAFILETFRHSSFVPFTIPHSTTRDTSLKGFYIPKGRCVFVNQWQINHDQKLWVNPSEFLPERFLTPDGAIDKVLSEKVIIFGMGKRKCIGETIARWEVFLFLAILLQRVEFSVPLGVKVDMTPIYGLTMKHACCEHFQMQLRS
# Excerpt: as §1
# [8] = target: T4, CYP1A1; test: TKI disappearance in microsomal incubations with cDNA expressed CYP1A1; type: in vitro ADME; design: purchased BD Bioscience (Belgium), BD Gentest; host or cells: insect cells
# Protocol: as §2, §1
# [9] = target: T4, CYP1A1; design: purchased BD Bioscience (Belgium), BD Gentest; host or cells: insect cells; method as in earlier work; conditions: compared with CYP1B1 and 3A4, ref 22 (Kamath et al.); cited from earlier work
# [10] = target: T3, CYP1B1; test: TKI disappearance in microsomal incubations with cDNA expressed CYP1B1; type: in vitro ADME; design: purchased BD Bioscience (Belgium), BD Gentest; host or cells: insect cells; conditions: TKI 2.5 µM at T = 0, first 10 minutes, 20 picomoles of CYP
# Protocol: as §2, §1
# [11] = target: T4, CYP1A1; test: Michaelis-Menten kinetics of TKI metabolite production, cDNA expressed CYP1A1 microsomes; conditions: for Relative Intrinsic Clearance: Vmax/Km for production of the labelled metabolite, as fold difference of the intrinsic clearance of CYP3A4; for Km: read-out: Affinity Constant, Km, Km of the parent TKI for production of the labelled metabolite, 10 pmoles CYP, TKI 0.5-20 µM, 15 min
# [12] = target: T3, CYP1B1; test: Michaelis-Menten kinetics of TKI metabolite production, cDNA expressed CYP1B1 microsomes; conditions: for Relative Intrinsic Clearance: Vmax/Km for production of the labelled metabolite, as fold difference of the intrinsic clearance of CYP3A4; for Km: read-out: Affinity Constant, Km, Km of the parent TKI for production of the labelled metabolite, 10 pmoles CYP, TKI 0.5-20 µM, 15 min
# [13] = target: T4, CYP1A1; conditions: read-out: Affinity Constant, Km, Km of the parent TKI (imatinib) for production of the labelled metabolite, values marked (*), previous published study ref 18; cited from earlier work
# [14] = tested on: CYP2J2; conditions: approved drugs identified as CYP2J2 inhibitors; cited from earlier work
# [15] = target: T1, CYP2J2; test: Michaelis-Menten kinetics of TKI metabolite production, cDNA expressed CYP2J2 microsomes; conditions: for Km: read-out: Affinity Constant, Km, Km of the parent TKI for production of the labelled metabolite, 10 pmoles CYP, TKI 0.5-20 µM, 15 min
# [16] = target: T2, CYP3A4; test: Michaelis-Menten kinetics of TKI metabolite production, cDNA expressed CYP3A4 microsomes; conditions: for Km: read-out: Affinity Constant, Km, CYP3A4, Km of the parent TKI for production of the labelled metabolite, 10 pmoles CYP, TKI 0.5-20 µM, 15 min
# [17] = CYP1A1, TKI 2.5 µM at T = 0, first 10 minutes, 20 picomoles of CYP
compound,measurement,setting,value
"Cc1nc(Nc2ncc(C(=O)Nc3c(C)cccc3Cl)s2)cc(N2CCN(CCO)CC2)n1 [Dasatinib, dasatinib]",TKI removal from HepG2 cell culture media,[1],CYP2J2>CYP1A1>CYP1B1
same,Degradation in similar microsomal incubations,[2],comparable rate of disappearance
same,TKI removal from HepG2 cell culture media,[3],CYP2J2>CYP1A1>CYP1B1
same,Degradation in similar microsomal incubations,[4],comparable rate of disappearance
same,Disappearance rate in microsomal incubations,[5],1.2 nmoles of TKI degraded/(min×nmole of CYP)
same,TKI levels removed from incubations,[5],more than 60%
same,Disappearance rate in microsomal incubations,[6],1.1 nmoles of TKI degraded/(min×nmole of CYP)
same,TKI levels removed from incubations,[6],more than 60%
same,TKI removal from HepG2 cell culture media,[7],CYP2J2>CYP1A1>CYP1B1
same,Disappearance rate in microsomal incubations,[8]; [17],0.9 nmoles of TKI degraded/(min×nmole of CYP)
same,Degradation in similar microsomal incubations,[9],comparable rate of disappearance
same,Disappearance rate in microsomal incubations,[10],1.0 nmoles of TKI degraded/(min×nmole of CYP)
"CCNCCNC(=O)c1c(C)[nH]c(/C=C2\C(=O)Nc3ccc(F)cc32)c1C [E-deethyl-sunitinib #1, E-deethyl-sunitinib]",Relative Intrinsic Clearance,[11],0.1 fold diff.
same,Km,[11],6.9 µM
same,Relative Intrinsic Clearance,[12],0.1 fold diff.
same,Km,[12],2700 nM
Cc1ccc(NC(=O)c2ccc(CN3CCNCC3)cc2)cc1Nc1nccc(-c2cccnc2)n1 [N-demethyl-imatinib],Km,[13],7.6 µM
"Cc1cn(-c2cc(NC(=O)c3ccc(C)c(Nc4nccc(-c5cccnc5)n4)c3)cc(C(F)(F)F)c2)cn1 [Nilotinib, nilotinib]",TKI removal from HepG2 cell culture media,[1],mainly removed by CYP2J2
same,TKI removal from HepG2 cell culture media,[3],very slowly by CYP1B1
same,Disappearance rate in microsomal incubations,[5],1.2 nmoles of TKI degraded/(min×nmole of CYP)
same,TKI levels removed from incubations,[5],more than 60%
same,Disappearance rate in microsomal incubations,[6],0.7 nmoles of TKI degraded/(min×nmole of CYP)
same,TKI levels removed from incubations,[6],more than 60%
same,Disappearance rate in microsomal incubations,[8]; [17],0.2 nmoles of TKI degraded/(min×nmole of CYP)
same,Disappearance rate in microsomal incubations,[10],0.3 nmoles of TKI degraded/(min×nmole of CYP)
"CNC(=O)c1cc(Oc2ccc(NC(=O)Nc3ccc(Cl)c(C(F)(F)F)c3)cc2)ccn1 [Sorafenib, sorafenib]",TKI removal from HepG2 cell culture media,[3],very slowly by CYP1B1
same,Disappearance rate in microsomal incubations,[8]; [17],0.4 nmoles of TKI degraded/(min×nmole of CYP)
same,Disappearance rate in microsomal incubations,[10],0.0 nmoles of TKI degraded/(min×nmole of CYP)
"CCN(CC)CCNC(=O)c1c(C)[nH]c(/C=C2\C(=O)Nc3ccc(F)cc32)c1C [Sunitinib, sunitinib]",TKI removal from HepG2 cell culture media,[7],equal rate for CYP1A1 and 2J2
same,Disappearance rate in microsomal incubations,[8],0.6 nmoles of TKI degraded/(min×nmole of CYP)
same,Disappearance rate in microsomal incubations,[10],0.1 nmoles of TKI degraded/(min×nmole of CYP)
"CCNCCNC(=O)c1c(C)[nH]c(/C=C2\C(=O)Nc3ccc(F)cc32)c1C [Z-deethyl-sunitinib #2, Z-deethyl-sunitinib]",Relative Intrinsic Clearance,[11],0.2 fold diff.
same,Km,[11],6.7 µM
same,Relative Intrinsic Clearance,[12],0.1 fold diff.
C#C[C@]1(O)CC[C@H]2[C@@H]3CCC4=Cc5oncc5C[C@]4(C)[C@H]3CC[C@@]21C [danazol],CYP2J2 inhibition,[14],CYP2J2 inhibitors
Cc1nc(Nc2ncc(C(=O)Nc3c(C)cccc3Cl)s2)cc(N2CCNCC2)n1 [dehydroxyethyl-dasatinib],Relative Intrinsic Clearance,[11],0.5 fold diff.
same,Km,[11],4.7 µM
same,Relative Intrinsic Clearance,"[15]; Vmax/Km for production of the labelled metabolite, as fold difference of the intrinsic clearance of CYP3A4",0.5 fold diff.
same,Km,[15],3900 nM
same,Relative Intrinsic Clearance,"[16]; CYP3A4 (reference, set to 1.0), Vmax/Km for production of the labelled metabolite",1.0 fold diff.
same,Km,[16],71.4 µM
same,Relative Intrinsic Clearance,[12],1.1 fold diff.
same,Km,[12],2200 nM
Fc1ccc(C(c2ccc(F)cc2)N2CCN(C/C=C/c3ccccc3)CC2)cc1 [flunarizine],CYP2J2 inhibition,[14],CYP2J2 inhibitors
CCCc1nc2c(C)cc(-c3nc4ccccc4n3C)cc2n1Cc1ccc(-c2ccccc2C(=O)O)cc1 [telmisartan],CYP2J2 inhibition,[14],CYP2J2 inhibitors
N-oxide-nilotinib [NO-nilotinib #1],Km,[11],3 µM
same,Km,[15],800 nM
same,Km,[16],27.6 µM
